Test results from patent US8877746B2, “Compositions for delivery of insoluble agents” (Cardioklne, Inc, priority 2009, dated 2014).
≈ marks a conversion by molar mass, not a printed value.

Columns and labels:
[1] = Solubility in 1.5% SDS at 25° C.; format: physicochemical
[2] = Solubility of lixivaptan in water; format: physicochemical
Description: Lixivaptan is very poorly soluble in water (less than 20 ng/mL). Salt formation (a frequently used approach to increase aqueous solubility) was not possible. The bioavailability of lixivaptan can be extremely low in conventional dosage forms (i.e., when blended with excipients and compressed into tablets or filled into capsules).

Solubility (mg/mL in 1.5% SDS, 25° C.) 1 h ([1]; 1 h): 0.019 mg/mL (≈ 40.1 µM)
solubility at 24 h ([1]; aqueous with cosolvent or surfactant or cyclodextrin, 24 h, read-out: Solubility (mg/mL in 1.5% SDS, 25° C.) 24 h): 0.024 mg/mL (≈ 50.6 µM)
solubility [2]: < 0.02 µg/mL
Compound: Cc1ccc(F)cc1C(=O)Nc1ccc(C(=O)N2Cc3cccn3Cc3ccccc32)c(Cl)c1 [Lixivaptan, 5-fluoro-2-methyl-N-[4-(5H-pyrrolo[2,1-c]-[1,4]-benzodiazepin-10(11H)-ylcarbonyl)-3-chlorophenyl]benzamide]
